Reference: patent publication US11925612B2, “Bactericidal and virucidal pharmaceutical composition” (Quimica Luar SRL, priority 2015, dated 2024)
Where two headings read alike, the source gives them in different places.

Legend:
P. aeruginosa = assay: Bactericidal test: CFU count after incubation in PBS buffer; type: cell-based, Pseudomonas aeruginosa
[1] = system: Herpes Simplex 1 virus (HSV); type: cell-based; settings: Ibuprofen at 50 mM, virus incubated 60 minutes at 37° C.
[2] = system: BVDV bovine diarrhea virus; type: cell-based; settings: Ibuprofen at 50 mM, virus incubated 60 minutes at 37° C.
[3] = system: vesicular stomatitis virus (VSV); type: cell-based; settings: Ibuprofen at 50 mM, virus incubated 60 minutes at 37° C.
[4] = system: Rubella virus strain (MV); type: cell-based; settings: Ibuprofen at 50 mM, virus incubated 60 minutes at 37° C.
[5] = solubilised in water; cited from earlier work
Burkhordelia cepacia = type: cell-based; settings: 4 h incubation at 37° C., control 130,000, Example 10
Description: In this case, tests were run on a non-nutritive liquid carrier (buffer solution) wherein the antimicrobial agent is mixed with quantified inocula of pure bacterial cultures. After different incubation times, the material is seeded on agar plates to perform quantification assays on the number of bacterias surviving the treatment.
When the time for each assay finished, aliquots of 100 uL and decimal dilutions of each tube which were seeded on petri dishes for the direct count of colony forming units (CFU) in Mueller Hinton agar (MHA), using pour-plating or spread-plating standard methods.
During testing, the medium was stored in thermostatic bath between 45-50° C. because the seeding technique requires imbibing and integrating bacteria in the medium.

[6] = system: artificial biofilm of P. aeruginosa; assay: Antimicrobial effect on artificial biofilm (2% alginate solution); type: cell-based, Pseudomonas aeruginosa; settings: Biofilm (2% alginate) + ionic strength (1 M NaCl), 4 hours at 37° C., control 2,000,000, Example 21
Description: Work consisted of incubating bacterial populations of a known load in terms of CFU/mL with the compounds mentioned in different molar concentrations. In vitro test batteries were organized at different doses or concentrations and in 1.5 mL Eppendorf tubes without the addition of culture medium. To this purpose, a PBS 100 mM phosphate buffer was used to maintain physiological conditions throughout the period of each test at 37° C. […] Each plate was added with 5 uL of a solution of 2,3,5-metabolic dye triphenyltetrazolium of chloride (TTC) 1% to enhance the contrast of colonies. Plates were incubated in inverted position, in a culture stove for 24-48 hours at 37° C. and subsequently the direct count was done, adjusted by dilution factors and seeding to report results in terms of CFU/mL. […] Treatments lasted 4 hours at 37° C.

Structure (SMILES): CC(C)Cc1ccc(C(C)C(=O)O)cc1 (centres unmarked) [IBU-H, PROTONATED IBUPROFEN]
- P. aeruginosa (UFC/mL ± 10) (P. aeruginosa; IBU 10 mM, 4 h at 37° C., control 1,700,000, Example 4): 480,000 UFC/mL
- P. aeruginosa (UFC/mL ± 10) (P. aeruginosa; IBU 20 mM, 4 h at 37° C., control 1,700,000, Example 4): 200,000 UFC/mL
- P. aeruginosa (UFC/mL ± 10) (P. aeruginosa; IBU 50 mM, 4 h at 37° C., control 1,700,000, Example 4): 1000 UFC/mL
- P. aeruginosa (UFC/mL ± 10) (P. aeruginosa; IBU 100 mM, 4 h at 37° C., control 1,700,000, Example 4): 10 UFC/mL

Structure (SMILES): CC(C)Cc1ccc(C(C)C(=O)O)cc1 (centres unmarked) [Ibuprofen, ibuprofen]
- Reduction of viral level [1]: >6.9 TCID50 mL-1
- Reduction of viral level [2]: >6.5 TCID50 mL-1
- Reduction of viral level [3]: >7.7 TCID50 mL-1
- Reduction of viral level [4]: >5.0 TCID50 mL-1
- critical micelle concentration (CMC) [5]: about 180 mM

Structure (SMILES): [Cl-].[Na+] [NaCl]
- P. aeruginosa (UFC/mL ± 10) (P. aeruginosa; NaCl 0.01 M, 4 hours at 37° C., control 2,000,000, Example 11): 2,000,000 UFC/mL
- P. aeruginosa (UFC/mL ± 10) (P. aeruginosa; NaCl 0.025 M, 4 hours at 37° C., control 2,000,000, Example 11): 2,000,000 UFC/mL
- P. aeruginosa (UFC/mL ± 10) (P. aeruginosa; NaCl 0.1 M, 4 hours at 37° C., control 2,000,000, Example 11): 2,000,000 UFC/mL
- P. aeruginosa (UFC/mL ± 10) (P. aeruginosa; NaCl 0.25 M, 4 hours at 37° C., control 2,000,000, Example 11): 1,800,000 UFC/mL
- P. aeruginosa (UFC/mL ± 10) (P. aeruginosa; NaCl 0.5 M (line between 0.025 and 0.1), 4 hours at 37° C., control 2,000,000, Example 11): 2,000,000 UFC/mL
- P. aeruginosa (UFC/mL ± 10) (P. aeruginosa; NaCl 0.5 M (line between 0.25 and 1), 4 hours at 37° C., control 2,000,000, Example 11): 1,600,000 UFC/mL
- P. aeruginosa (UFC/mL ± 10) (P. aeruginosa; NaCl 1 M, 4 hours at 37° C., control 2,000,000, Example 11): 1,000,000 UFC/mL

Structure (SMILES): COc1ccc2cc([C@H](C)C(=O)O)ccc2c1 [Naproxen]
- B. cepacia (UFC/mL ± 10) (Burkhordelia cepacia; Naproxen 10 mM): 125,000 UFC/mL
- B. cepacia (UFC/mL ± 10) (Burkhordelia cepacia; Naproxen 25 mM): 38,000 UFC/mL
- B. cepacia (UFC/mL ± 10) (Burkhordelia cepacia; Naproxen 50 mM): 31,000 UFC/mL
- B. cepacia (UFC/mL ± 10) (Burkhordelia cepacia; Naproxen 100 mM): 1,300 UFC/mL

Structure (SMILES): NC[C@H]1O[C@H](O[C@H]2[C@H](O)[C@@H](O[C@H]3O[C@H](CO)[C@@H](O)[C@H](N)[C@H]3O)[C@H](N)C[C@@H]2N)[C@H](N)C[C@@H]1O [Tobramycin, tobramycin]
- P. aeruginosa (UFC/mL ± 10) (P. aeruginosa; Tobramycin 0.25 mM with ClNa (1M), 4 h at 37° C., control 1,000,000, Example 20): 400,000 UFC/mL
- P. aeruginosa (UFC/mL ± 10) (P. aeruginosa; Tobramycin 1 mM with ClNa (1M), 4 h at 37° C., control 1,000,000, Example 20): 10 UFC/mL
- P. aeruginosa (UFC/mL ± 10) (P. aeruginosa; Tobramycin 1 mM, 1 hour, 37° C., control 2,000,000, Example 19): 1,000,000 UFC/mL
- P. aeruginosa (UFC/mL ± 10) (P. aeruginosa; Tobramycin 1 mM, 4 hours, 37° C., control 2,000,000, Example 19): 30,000 UFC/mL
- P. aeruginosa (UFC/mL ± 10) (P. aeruginosa; Tobramycin 1 mM, O.N., 37° C., control 2,000,000, Example 19): 30,000 UFC/mL
- P. aeruginosa (UFC/mL ± 10) (P. aeruginosa; Tobramycin 2.5 mM, 1 hour, 37° C., control 2,000,000, Example 19): 60,000 UFC/mL
- P. aeruginosa (UFC/mL ± 10) (P. aeruginosa; Tobramycin 2.5 mM, 4 hours, 37° C., control 2,000,000, Example 19): 20,000 UFC/mL
- P. aeruginosa (UFC/mL ± 10) (P. aeruginosa; Tobramycin 2.5 mM, O.N., 37° C., control 2,000,000, Example 19): 10 UFC/mL
- P. aeruginosa (UFC/mL ± 10) (P. aeruginosa; Tobramycin 5 mM with ClNa (1M), 4 h at 37° C., control 1,000,000, Example 20): 10 UFC/mL
- P. aeruginosa (UFC/mL ± 10) (P. aeruginosa; Tobramycin 5 mM, 1 hour, 37° C., control 2,000,000, Example 19): 30,000 UFC/mL
- P. aeruginosa (UFC/mL ± 10) (P. aeruginosa; Tobramycin 5 mM, 4 hours, 37° C., control 2,000,000, Example 19): 1,000 UFC/mL
- P. aeruginosa (UFC/mL ± 10) (P. aeruginosa; Tobramycin 5 mM, O.N., 37° C., control 2,000,000, Example 19): 10 UFC/mL
- P. aeruginosa (UFC/mL ± 10) (P. aeruginosa; Tobramycin 10 mM with ClNa (1M), 4 h at 37° C., control 1,000,000, Example 20): 10 UFC/mL
- P. aeruginosa (UFC/mL ± 10) (P. aeruginosa; Tobramycin 10 mM, 1 hour, 37° C., control 2,000,000, Example 19): 1,000 UFC/mL
- P. aeruginosa (UFC/mL ± 10) (P. aeruginosa; Tobramycin 10 mM, 4 hours, 37° C., control 2,000,000, Example 19): 10 UFC/mL
- P. aeruginosa (UFC/mL ± 10) (P. aeruginosa; Tobramycin 10 mM, O.N., 37° C., control 2,000,000, Example 19): 10 UFC/mL
- P. aeruginosa (UFC/mL ± 10) ([6]; 5 mM): 10 UFC/mL
- P. aeruginosa (UFC/mL ± 10) ([6]; 10 mM): 10 UFC/mL
